According to patent US20230116114A1, “COMPOUNDS AND COMPOSITIONS FOR TREATING CNS DISORDERS” (Blue Oak Pharmaceuticals, Inc., priority 2020, published 2023):
Structures can show the parent of a compound that is named as a salt.

Test system: mice
Test: SmartCube in vivo neuropharmacological behavioral assay
Details: for minimal effective dose: Mus musculus, ip, 0.25 h, dose having 50% or more total activity in SmartCube, i.p., read-out: MED (minimal effective dose); for AD: antidepressant (percent probability) / AG: analgesic (percent probability) / AP: antipsychotic (percent probability) / AX: anxiolytic (percent probability) / CE: cognitive enhancer (percent probability) / HA: hallucinogenic (percent probability) / MS: mood stabilizer (percent probability) / PS (percent probability) / SD: sedative hypnotic (percent probability) / SE: side effects (percent probability) / UN: uncharacterized CNS activity (percent probability) / XG: anxiogenic (percent probability): SmartCube, i.p. 15 min before test, result at the MED
Experimental: The compounds were evaluated for their CNS related properties (e.g., the treatment, prevention or diagnosis of CNS or CNS-related disorders and/or amelioration of symptoms) using neuropharmacological screening methods described in S. L. Roberts et al., Front. Neurosci. 2011, 5:103 (hereinafter referred to as “Roberts,” the contents of which are incorporated herein by reference in their entirety).
According to Roberts, intact systems are useful in detecting improvement in disease-relevant endpoints, because psychiatric diseases generally result from disorders of cell-cell communication or circuitry. The endpoints are typically behavioral in nature, often requiring human observation and interpretation. In order to test multiple compounds for behavioral effects relevant to neurological and psychiatric diseases and disorders, PsychoGenics, Inc. (Paramus, N.J. “PGI”) developed SmartCube®, an automated system in which behaviors of compound-treated mice are captured by digital video and analyzed with computer algorithms to facilitate testing of multiple compounds for behavioral effects relevant to psychiatric disease. (D. Brunner et al., Drug Discov. Today 2002, 7:S107-S112; Alexandrov et al., Eur. J. Pharmacol. 2015, 753:127-134; the contents of each of which are incorporated herein by reference in their entirety).
The SmartCube® system is described in Example 2.2 of U.S. Pat. No. 9,758,529 and Example 289 of WIPO Publication No. WO2018/023070, the contents of each of which are incorporated herein by reference in their entirety.
According to the present disclosure, compounds identified may be evaluated using the SmartCube® system. The results of such analysis correlate certain patterns or combinations of behaviors to CNS effects along a percent probability scale of 0-100 where zero (0) reflects the limit of quantitation (LOQ).
The compounds of the present disclosure were evaluated for their CNS related properties (e.g., the treatment, prevention or diagnosis of CNS or CNS-related disorders and/or amelioration of symptoms) using neuropharmacological screening methods described in S. L. Roberts et al., Front. Neurosci. 2011, 5:103 (hereinafter referred to as “Roberts,” the contents of which are incorporated herein by reference in their entirety).
The SmartCube® system described herein was utilized to compare the behavioral signature of a test compound to a database of behavioral signatures obtained using a large set of diverse reference compounds (including but not limited to antipsychotics, anxiolytics, antidepressants and bipolar disorder medicine), thereby predicting the neuropharmacological effects of a test compound by similarity to major classes of compounds. It produces an activity signature indicating the probability that the activity of the test compound at the administered dose matches a given class of neuropharmacological agents. The test compound is simultaneously compared against multiple classes of agents; thus, a separate probability is generated for each behavioral effect measured (such as but not limited to anxiolytic activity and analgesic activity).
The compounds of the present disclosure were dissolved in a mixture of Pharmasolve™ (N-methyl-2-pyrrolidone (NMP)) and were injected i.p. 15 min. before the behavioral test. For each compound, injections were administered at different dose levels (e.g., 0.3, 1, 3, 10 and 30 mg per kg (mpk)). A compound's minimal effective dose (MED; see Table 3) is a measure of the compound's potency. The MED was defined as the dose (in mpk) having 50% or more total activity in SmartCube®. For each behavioral effect measured, results at the MED are presented. CNS activities of the compounds were recorded (see Table 2). In Table 1, a key to the percent probabilities (probability ×100) for each behavioral effect (“X”) are defined provided, where LOQ is the limit of quantification.

CC[C@H](C)N1C2CCCC1c1ccccc12 [Compound 26, 12-[(2S)-Butan-2-yl]-12-azatricyclo[6.3.1.0^2,7]dodeca-2,4,6-triene hydrochloride]
minimal effective dose: 1 to 10 mg/kg
AD: antidepressant (percent probability): ++++ (50% ≤ X < 100%)
AG: analgesic (percent probability): + (LOQ ≤ X < 5%)
AP: antipsychotic (percent probability): + (LOQ ≤ X < 5%)
AX: anxiolytic (percent probability): + (LOQ ≤ X < 5%)
CE: cognitive enhancer (percent probability): + (LOQ ≤ X < 5%)
HA: hallucinogenic (percent probability): ++ (5% ≤ X < 25%)
MS: mood stabilizer (percent probability): + (LOQ ≤ X < 5%)
PS (percent probability): ++ (5% ≤ X < 25%)
SD: sedative hypnotic (percent probability): + (LOQ ≤ X < 5%)
SE: side effects (percent probability): + (LOQ ≤ X < 5%)
UN: uncharacterized CNS activity (percent probability): + (LOQ ≤ X < 5%)
XG: anxiogenic (percent probability): + (LOQ ≤ X < 5%)

CCC(C)N1C2CCCC1c1ccccc12 (stereo not shown) [Compound 12, 12-(Butan-2-yl)-12-azatricyclo[6.3.1.0^2,7]dodeca-2,4,6-triene]
minimal effective dose: 1 to 10 mg/kg
AD: antidepressant (percent probability): ++ (5% ≤ X < 25%)
AG: analgesic (percent probability): + (LOQ ≤ X < 5%)
AP: antipsychotic (percent probability): + (LOQ ≤ X < 5%)
AX: anxiolytic (percent probability): ++ (5% ≤ X < 25%)
CE: cognitive enhancer (percent probability): + (LOQ ≤ X < 5%)
HA: hallucinogenic (percent probability): + (LOQ ≤ X < 5%)
MS: mood stabilizer (percent probability): + (LOQ ≤ X < 5%)
PS (percent probability): + (LOQ ≤ X < 5%)
SD: sedative hypnotic (percent probability): + (LOQ ≤ X < 5%)
SE: side effects (percent probability): + (LOQ ≤ X < 5%)
UN: uncharacterized CNS activity (percent probability): +++ (25% ≤ X < 50%)
XG: anxiogenic (percent probability): + (LOQ ≤ X < 5%)

CCC(CC)N1C2CCCC1c1ccccc12 [Compound 17, 12-(Pentan-3-yl)-12-azatricyclo[6.3.1.0^2,7]dodeca-2,4,6-trienehydrochloride]
minimal effective dose: 10 to 30 mg/kg
AD: antidepressant (percent probability): ++ (5% ≤ X < 25%)
AG: analgesic (percent probability): + (LOQ ≤ X < 5%)
AP: antipsychotic (percent probability): + (LOQ ≤ X < 5%)
AX: anxiolytic (percent probability): ++ (5% ≤ X < 25%)
CE: cognitive enhancer (percent probability): + (LOQ ≤ X < 5%)
HA: hallucinogenic (percent probability): + (LOQ ≤ X < 5%)
MS: mood stabilizer (percent probability): + (LOQ ≤ X < 5%)
PS (percent probability): ++++ (50% ≤ X < 100%)
SD: sedative hypnotic (percent probability): + (LOQ ≤ X < 5%)
SE: side effects (percent probability): + (LOQ ≤ X < 5%)
UN: uncharacterized CNS activity (percent probability): + (LOQ ≤ X < 5%)
XG: anxiogenic (percent probability): + (LOQ ≤ X < 5%)

CC(C1CC1)N1C2CCCC1c1ccccc12 (stereo not shown) [Compound 21, 12-(1-Cyclopropylethyl)-12-azatricyclo[6.3.1.0]dodeca-2,4,6-triene hydrochloride]
minimal effective dose: 0.1 to 1 mg/kg
AD: antidepressant (percent probability): +++ (25% ≤ X < 50%)
AG: analgesic (percent probability): ++ (5% ≤ X < 25%)
AP: antipsychotic (percent probability): + (LOQ ≤ X < 5%)
AX: anxiolytic (percent probability): ++ (5% ≤ X < 25%)
CE: cognitive enhancer (percent probability): + (LOQ ≤ X < 5%)
HA: hallucinogenic (percent probability): + (LOQ ≤ X < 5%)
MS: mood stabilizer (percent probability): + (LOQ ≤ X < 5%)
PS (percent probability): + (LOQ ≤ X < 5%)
SD: sedative hypnotic (percent probability): + (LOQ ≤ X < 5%)
SE: side effects (percent probability): + (LOQ ≤ X < 5%)
UN: uncharacterized CNS activity (percent probability): + (LOQ ≤ X < 5%)
XG: anxiogenic (percent probability): + (LOQ ≤ X < 5%)

CN1C2CCCC1c1ccccc12 [Compound 3, 12-Methyl-12-azatricyclo[6.3.1.0^2,7]dodeca-2,4,6-triene hydrochloride]
minimal effective dose: 10 to 30 mg/kg
AD: antidepressant (percent probability): +++ (25% ≤ X < 50%)
AG: analgesic (percent probability): ++ (5% ≤ X < 25%)
AP: antipsychotic (percent probability): + (LOQ ≤ X < 5%)
AX: anxiolytic (percent probability): ++ (5% ≤ X < 25%)
CE: cognitive enhancer (percent probability): + (LOQ ≤ X < 5%)
HA: hallucinogenic (percent probability): + (LOQ ≤ X < 5%)
MS: mood stabilizer (percent probability): + (LOQ ≤ X < 5%)
PS (percent probability): + (LOQ ≤ X < 5%)
SD: sedative hypnotic (percent probability): ++ (5% ≤ X < 25%)
SE: side effects (percent probability): ++ (5% ≤ X < 25%)
UN: uncharacterized CNS activity (percent probability): ++ (5% ≤ X < 25%)
XG: anxiogenic (percent probability): + (LOQ ≤ X < 5%)

CC(CF)N1C2CCCC1c1ccccc12 (stereo not shown) [Compound 19, 12-(1-Fluoropropan-2-yl)-12-azatricyclo[6.3.1.0^2,7]dodeca-2,4,6-triene hydrochloride]
minimal effective dose: 10 to 30 mg/kg
AD: antidepressant (percent probability): ++ (5% ≤ X < 25%)
AG: analgesic (percent probability): + (LOQ ≤ X < 5%)
AP: antipsychotic (percent probability): + (LOQ ≤ X < 5%)
AX: anxiolytic (percent probability): ++++ (50% ≤ X < 100%)
CE: cognitive enhancer (percent probability): + (LOQ ≤ X < 5%)
HA: hallucinogenic (percent probability): + (LOQ ≤ X < 5%)
MS: mood stabilizer (percent probability): + (LOQ ≤ X < 5%)
PS (percent probability): + (LOQ ≤ X < 5%)
SD: sedative hypnotic (percent probability): + (LOQ ≤ X < 5%)
SE: side effects (percent probability): + (LOQ ≤ X < 5%)
UN: uncharacterized CNS activity (percent probability): + (LOQ ≤ X < 5%)
XG: anxiogenic (percent probability): + (LOQ ≤ X < 5%)

CC(C)N1C2CCC(=O)C1c1ccccc12 (stereo not shown) [Compound 39, hydrochloride]
minimal effective dose: > 30 mg/kg
AD: antidepressant (percent probability): + (LOQ ≤ X < 5%)
AG: analgesic (percent probability): + (LOQ ≤ X < 5%)
AP: antipsychotic (percent probability): + (LOQ ≤ X < 5%)
AX: anxiolytic (percent probability): + (LOQ ≤ X < 5%)
CE: cognitive enhancer (percent probability): + (LOQ ≤ X < 5%)
HA: hallucinogenic (percent probability): + (LOQ ≤ X < 5%)
MS: mood stabilizer (percent probability): + (LOQ ≤ X < 5%)
PS (percent probability): + (LOQ ≤ X < 5%)
SD: sedative hypnotic (percent probability): + (LOQ ≤ X < 5%)
SE: side effects (percent probability): + (LOQ ≤ X < 5%)
UN: uncharacterized CNS activity (percent probability): + (LOQ ≤ X < 5%)
XG: anxiogenic (percent probability): + (LOQ ≤ X < 5%)
